Experiments:
[1] = target: BTK (Homo sapiens (Human), UniProt Q06187); test: Kinase inhibition assay (Nanosyn, microfluidic detection), BTK; assay type: biochemical; conditions: 1 mM ATP, 3 hours at 25° C.
Procedure: (§1) The in vitro kinase assays were performed at Nanosyn (Santa Clara, Calif.) utilizing microfluidic detection technology. The test compounds were serially pre-diluted in DMSO and added, by the acoustic dispensing (Labcyte® 550), directly to 384 well assay plates into 10 uL of a buffer with enzyme (ITK, TXK, BTK or TEC) comprising: 100 mM HEPES, pH7.5, 5 mM MgCl2, 0.1% bovine serum albumin, 1 mM DTT, 0.01% Triton X-100 and the enzyme. Final DMSO concentration was maintained at 1% in all samples, including the controls. The reactions were initiated by addition of ATP (1 mM final concentration) and the fluorescently labeled peptide substrate to a final concentration of 1 uM, and incubated for 3 hours at 25° C. Following incubation, the reactions were quenched by addition of 40 μL of termination buffer (100 mM HEPES, pH7.5, 0.01% Triton X-100, 50 mM EDTA). Terminated plates were analyzed using Caliper LabChip® 3000 microfluidic electrophoresis instrument (Caliper Life Sciences/Perkin Elmer). The enzymatic modification of the peptide substrate (phosphorylation) results in a change of net charge enabling electrophoretic separation of product from substrate. As substrate and product are separated by electrophoresis, two peaks of fluorescence are observed. Change in the relative fluorescence intensity of the substrate and product peaks was the parameter measured, reflecting enzyme activity. In the presence of inhibitor, the ratio between product and substrate is altered: signal of the product decreases, while the signal of the substrate increases. Activity in each test sample was determined as the product to sum ratio (PSR): P/(S+P), where P is the peak height of the product and S is the peak height of the […]. For each compound, enzyme activity was measured at 12 concentrations spaced by 3× dilution intervals. Negative control samples (0%-inhibition in the absence of inhibitor, DMSO only) and positive control samples (100%-inhibition, in the absence of enzyme or in the presence of control inhibitor) were assembled in replicates of four and were used to calculate %-inhibition values in the presence of compounds. Percent inhibition (Pinh) was determined using the following equation: Pinh=(PSR0%−PSRinh)/(PSR0%−PSR100%)*100, where PSRinh is the product sum ratio in the presence of inhibitor, PSR0% is the product sum ratio in the absence of inhibitor and PSR100% is the product sum ratio in 100%-inhibition control samples. To determine IC50 values, the inhibition curves (Pinh versus inhibitor concentration) were fitted by 4 parameter sigmoid dose-response model using XLfit software (IDBS).

[2] = target: TXK (Homo sapiens (Human), UniProt P42681); test: Kinase inhibition assay (Nanosyn, microfluidic detection), TXK; assay type: biochemical; conditions: 1 mM ATP, 3 hours at 25° C.
Procedure: as §1, with “The enzymatic modification of the peptide substrate (phosphorylation) results in a change of net charge enabling electrophoretic separation of product from substrate.” left out

Sequence of TXK (P42681 whole entry): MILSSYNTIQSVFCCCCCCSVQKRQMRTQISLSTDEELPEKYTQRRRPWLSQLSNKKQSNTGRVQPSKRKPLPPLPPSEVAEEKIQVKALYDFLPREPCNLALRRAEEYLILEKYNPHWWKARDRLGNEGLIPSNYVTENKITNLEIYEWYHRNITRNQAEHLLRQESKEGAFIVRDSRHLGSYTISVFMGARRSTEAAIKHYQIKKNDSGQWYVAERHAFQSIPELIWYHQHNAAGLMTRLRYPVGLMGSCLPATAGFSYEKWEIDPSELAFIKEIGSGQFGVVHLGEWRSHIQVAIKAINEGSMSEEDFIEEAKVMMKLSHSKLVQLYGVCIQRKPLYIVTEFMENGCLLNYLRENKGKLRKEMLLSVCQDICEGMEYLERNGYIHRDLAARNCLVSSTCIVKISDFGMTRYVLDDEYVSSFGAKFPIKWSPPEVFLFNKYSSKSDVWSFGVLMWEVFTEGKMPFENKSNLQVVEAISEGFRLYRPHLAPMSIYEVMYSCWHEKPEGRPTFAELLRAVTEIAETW
Sequence of BTK (Q06187 whole entry): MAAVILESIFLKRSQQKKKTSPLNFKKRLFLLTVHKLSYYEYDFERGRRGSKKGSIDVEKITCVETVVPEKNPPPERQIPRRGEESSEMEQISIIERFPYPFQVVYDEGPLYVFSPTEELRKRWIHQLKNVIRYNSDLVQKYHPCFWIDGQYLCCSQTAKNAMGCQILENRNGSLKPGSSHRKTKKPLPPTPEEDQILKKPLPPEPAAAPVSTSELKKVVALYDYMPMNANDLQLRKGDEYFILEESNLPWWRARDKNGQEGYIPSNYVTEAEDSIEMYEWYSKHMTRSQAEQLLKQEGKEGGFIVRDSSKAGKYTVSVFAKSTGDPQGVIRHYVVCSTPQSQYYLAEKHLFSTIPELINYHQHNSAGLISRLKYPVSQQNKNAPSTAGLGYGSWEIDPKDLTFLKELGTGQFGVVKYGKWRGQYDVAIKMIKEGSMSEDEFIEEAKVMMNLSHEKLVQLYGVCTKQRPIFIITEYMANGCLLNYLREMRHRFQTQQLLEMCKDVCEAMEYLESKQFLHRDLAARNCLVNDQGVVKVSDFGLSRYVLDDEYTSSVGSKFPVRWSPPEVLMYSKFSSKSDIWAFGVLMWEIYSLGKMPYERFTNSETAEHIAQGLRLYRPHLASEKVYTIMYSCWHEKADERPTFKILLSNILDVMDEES

| IC50 [1] | IC50 [2] | SMILES |
| --- | --- | --- |
| 23.4 nM | 3.9 nM | C=CC(=O)N1CC[C@]2(C1)C[C@H](n1c(NC(=O)c3ccnn3C)nc3cc(CN[C@@H](C)C(C)(C)C)ccc31)C2 [Compound 14] |
| 4.4 nM | 0.55 nM | C=CC(=O)N1CC[C@]2(C1)C[C@H](n1c(NC(=O)c3ccc(C(F)F)s3)nc3ccccc31)C2 [Compound 15] |
| 4.52 nM | 1.84 nM | C=CC(=O)N1CC[C@]2(C1)C[C@H](n1c(NC(=O)c3ccncc3)nc3cc(CN[C@@H](C)C(C)(C)C)ccc31)C2 [Compound 20] |
| 1.54 nM | 1.22 nM | C=CC(=O)N1CC[C@]2(C1)C[C@H](n1c(NC(=O)c3ccno3)nc3cc(CN[C@@H](C)C(C)(C)C)ccc31)C2 [Compound 21] |
| 4.79 nM | 1.71 nM | C=CC(=O)N1CC[C@]2(C1)C[C@H](n1c(NC(=O)c3cccnc3)nc3cc(CN[C@@H](C)C(C)(C)C)ccc31)C2 [Compound 22] |
| 5.47 nM | 0.99 nM | C=CC(=O)N1CC[C@]2(C1)C[C@H](n1c(NC(=O)c3ccnc(C)c3)nc3cc(CN[C@@H](C)C(C)(C)C)ccc31)C2 [Compound 24] |
| 2.84 nM | 0.99 nM | C=CC(=O)N1CC[C@]2(C1)C[C@H](n1c(NC(=O)c3ccc(C)nc3)nc3cc(CN[C@@H](C)C(C)(C)C)ccc31)C2 [Compound 26] |
| 1.7 nM | 0.63 nM | C#Cc1ccc(C(=O)Nc2nc3cc(CN[C@@H](C)C(C)(C)C)ccc3n2[C@H]2C[C@@]3(CCN(C(=O)C=C)C3)C2)s1 [Compound 28] |
| 0.84 nM | 0.27 nM | C=CC(=O)N1CC[C@]2(C1)C[C@H](n1c(NC(=O)c3ccc(-c4cc[nH]c(=O)c4)s3)nc3cc(CO)ccc31)C2 [Compound 29] |
| 5.38 nM | 1.03 nM | C=CC(=O)N1CC[C@]2(C1)C[C@H](n1c(NC(=O)c3ccc(-c4ccc(N)nc4)s3)nc3ccccc31)C2 [Compound 31] |
| 5.45 nM | 0.7 nM | C=CC(=O)N1CC[C@]2(C1)C[C@H](n1c(NC(=O)c3ccc(OC)nc3)nc3cc(CN[C@@H](C)C(C)(C)C)ccc31)C2 [Compound 32] |
| 0.78 nM | 0.32 nM | C=CC(=O)N1CC[C@]2(C1)C[C@H](n1c(NC(=O)c3ccc(-c4ccccc4)nc3)nc3cc(CN[C@@H](C)C(C)(C)C)ccc31)C2 [Compound 33] |
| 1.39 nM | 0.45 nM | C=CC(=O)N1CC[C@]2(C1)C[C@H](n1c(NC(=O)c3ccc(C(F)F)s3)nc3cc(CN4CCCC4)ccc31)C2 [Compound 34] |
| 1.04 nM | 0.46 nM | C=CC(=O)N1CC[C@]2(C1)C[C@H](n1c(NC(=O)c3ccc(C(F)F)s3)nc3cc(CN[C@H]4CC[C@H](O)CC4)ccc31)C2 [Compound 35] |
| 1.14 nM | 0.63 nM | C=CC(=O)N1CC[C@]2(C1)C[C@H](n1c(NC(=O)c3ccc(C(F)F)s3)nc3cc(CN[C@H]4C[C@H](O)C4)ccc31)C2 [Compound 36] |
| 4.08 nM | 0.67 nM | C=CC(=O)N1CC[C@]2(C1)C[C@H](n1c(NC(=O)c3cccc(-c4cnco4)c3)nc3cc(CN[C@@H](C)C(C)(C)C)ccc31)C2 [Compound 38] |
| 5.67 nM | 0.97 nM | C=CC(=O)N1CC[C@]2(C1)C[C@H](n1c(NC(=O)c3ccc(-c4cnco4)cc3)nc3cc(CN[C@@H](C)C(C)(C)C)ccc31)C2 [Compound 39] |
| 1.16 nM | 0.72 nM | C=CC(=O)N1CC[C@]2(C1)C[C@H](n1c(NC(=O)c3ccc(-c4cnco4)s3)nc3cc(CN4CCCC4)ccc31)C2 [Compound 40] |

| IC50 [1] | IC50 [2] | SMILES |
| --- | --- | --- |
| 1.81 nM | 0.92 nM | C=CC(=O)N1CC[C@]2(C1)C[C@H](n1c(NC(=O)c3ccc(-c4cnco4)s3)nc3cc(CN4CCOCC4)ccc31)C2 [Compound 41] |
| 0.53 nM | 0.32 nM | C=CC(=O)N1CC[C@]2(C1)C[C@H](n1c(NC(=O)c3ccc(-c4cnco4)s3)nc3cc(CN[C@H]4C[C@H](O)C4)ccc31)C2 [Compound 43] |
| 1.44 nM | 1.1 nM | C=CC(=O)N1CC[C@]2(C1)C[C@H](n1c(NC(=O)c3ccns3)nc3ccccc31)C2 [Compound 46] |
| 11.3 nM | 2.69 nM | C=CC(=O)N1CC[C@]2(C1)C[C@H](n1c(NC(=O)c3ccc(C)nc3)nc3ccccc31)C2 [Compound 47] |
| 4.37 nM | 1.16 nM | C=CC(=O)N1CC[C@]2(C1)C[C@H](n1c(NC(=O)c3ccc(C#N)cc3)nc3ccccc31)C2 [Compound 48] |
| 13.7 nM | 1.39 nM | C=CC(=O)N1CC[C@]2(C1)C[C@H](n1c(NC(=O)c3cccc(-c4cnco4)c3)nc3ccccc31)C2 [Compound 49] |
| 0.73 nM | 0.44 nM | C=CC(=O)N1CC[C@]2(C1)C[C@H](n1c(NC(=O)c3ccc(-c4cnco4)s3)nc3cc(N(C)C(=O)C4CCOCC4)ccc31)C2 [Compound 51] |
| 0.58 nM | 0.39 nM | C=CC(=O)N1CC[C@]2(C1)C[C@H](n1c(NC(=O)c3ccc(-c4cnco4)s3)nc3cc(N(C)C(=O)C4CC4)ccc31)C2 [Compound 52] |
| 0.64 nM | 0.39 nM | C=CC(=O)N1CC[C@]2(C1)C[C@H](n1c(NC(=O)c3ccc(-c4cnco4)s3)nc3cc(N(C)C(C)=O)ccc31)C2 [Compound 53] |
| 0.56 nM | 0.3 nM | C=CC(=O)N1CC[C@]2(C1)C[C@H](n1c(NC(=O)c3ccc(-c4cnco4)s3)nc3cc(N(C)C(=O)C(C)C)ccc31)C2 [Compound 54] |
| 27.4 nM | 3.41 nM | C=CC(=O)N1CC[C@]2(C1)C[C@H](n1c(NC(=O)c3ccc(OC)nc3)nc3ccccc31)C2 [Compound 55] |
| 1.56 nM | 0.26 nM | C=CC(=O)N1CC[C@]2(C1)C[C@H](n1c(NC(=O)c3ccc(-c4cnco4)s3)nc3cccc(F)c31)C2 [Compound 56] |
| 1.32 nM | 0.29 nM | C=CC(=O)N1CC[C@]2(C1)C[C@H](n1c(NC(=O)c3ccc(-c4cnco4)s3)nc3ccc(F)cc31)C2 [Compound 58] |
| 1.64 nM | 0.44 nM | C=CC(=O)N1CC[C@]2(C1)C[C@H](n1c(NC(=O)c3ccc(-c4cnco4)s3)nc3cc(N(C)C(=O)[C@H](C)N4CCOCC4)ccc31)C2 [Compound 59] |
| 1.15 nM | 0.4 nM | C=CC(=O)N1CC[C@]2(C1)C[C@H](n1c(NC(=O)c3ccc(-c4cnco4)s3)nc3cc(N(C)C(=O)C4CCCCC4)ccc31)C2 [Compound 60] |
| 6.77 nM | 0.49 nM | C=CC(=O)N1CC[C@]2(C1)C[C@H](n1c(NC(=O)c3ccc(-c4cnco4)s3)nc3c(F)cccc31)C2 [Compound 61] |
| 10.5 nM | 1.58 nM | C=CC(=O)N1CC[C@]2(C1)C[C@@H](n1c(NC(=O)c3ccc(-c4cnco4)s3)nc3cccc(F)c31)C2 [Compound 62] |
| 1.29 nM | 0.37 nM | C=CC(=O)N1CC[C@]2(C1)C[C@H](n1c(NC(=O)c3ccc(-c4cnco4)s3)nc3cc(Cl)ccc31)C2 [Compound 63] |

Source: patent publication US10752615B2, “Spirocyclic containing compounds and pharmaceutical uses thereof” (GB005, Inc., priority 2016, dated 2020)
